Source: patent publication US6420131B1, “Use of fluorescein aryl ethers in high throughput cytochrome P450 inhibition assays” (Gentest Corporation, priority 1999, dated 2002)

How the values were obtained:
[1] = target: Rat CYP2E1 (Rattus norvegicus, UniProt P05182); assay: Turnover of fluorometric substrates by rat CYP2E1; details: substrate uM: Ia 2, AMMC 20, CEC 40, MFC 50, BFC 50, BQ 40, BzRes 50; 30 min; enzyme 87 nM, lymphoblastoid microsomes
[2] = target: T1, Rat CYP1A2 (Rattus norvegicus, UniProt P04799); assay: Turnover of fluorometric substrates by rat CYP1A2; details: substrate uM: Ia 2, AMMC 20, CEC 40, MFC 50, BFC 50, BQ 40, BzRes 50; 30 min; enzyme 50 nM
T1 sequence (P04799 1-513): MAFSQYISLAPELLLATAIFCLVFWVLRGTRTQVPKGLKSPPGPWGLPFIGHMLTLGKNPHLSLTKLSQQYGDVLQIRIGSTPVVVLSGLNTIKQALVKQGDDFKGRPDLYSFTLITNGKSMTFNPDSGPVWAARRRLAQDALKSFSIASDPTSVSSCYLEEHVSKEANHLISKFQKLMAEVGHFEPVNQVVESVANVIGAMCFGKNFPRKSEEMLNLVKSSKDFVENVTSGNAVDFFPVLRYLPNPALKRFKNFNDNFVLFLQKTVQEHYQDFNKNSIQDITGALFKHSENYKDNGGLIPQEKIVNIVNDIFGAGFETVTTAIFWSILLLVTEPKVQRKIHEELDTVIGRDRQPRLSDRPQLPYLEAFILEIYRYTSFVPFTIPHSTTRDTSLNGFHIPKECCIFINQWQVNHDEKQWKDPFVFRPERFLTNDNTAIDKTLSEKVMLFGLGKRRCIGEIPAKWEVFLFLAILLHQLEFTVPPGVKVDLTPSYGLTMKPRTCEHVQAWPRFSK

[3] = target: T2, Rat CYP2C13 (Rattus norvegicus, UniProt P20814); assay: Turnover of fluorometric substrates by rat CYP2C13; details: substrate uM: Ia 2, AMMC 20, CEC 40, MFC 50, BFC 50, BQ 40, BzRes 50; 30 min; enzyme 50 nM
T2 sequence (P20814 1-490): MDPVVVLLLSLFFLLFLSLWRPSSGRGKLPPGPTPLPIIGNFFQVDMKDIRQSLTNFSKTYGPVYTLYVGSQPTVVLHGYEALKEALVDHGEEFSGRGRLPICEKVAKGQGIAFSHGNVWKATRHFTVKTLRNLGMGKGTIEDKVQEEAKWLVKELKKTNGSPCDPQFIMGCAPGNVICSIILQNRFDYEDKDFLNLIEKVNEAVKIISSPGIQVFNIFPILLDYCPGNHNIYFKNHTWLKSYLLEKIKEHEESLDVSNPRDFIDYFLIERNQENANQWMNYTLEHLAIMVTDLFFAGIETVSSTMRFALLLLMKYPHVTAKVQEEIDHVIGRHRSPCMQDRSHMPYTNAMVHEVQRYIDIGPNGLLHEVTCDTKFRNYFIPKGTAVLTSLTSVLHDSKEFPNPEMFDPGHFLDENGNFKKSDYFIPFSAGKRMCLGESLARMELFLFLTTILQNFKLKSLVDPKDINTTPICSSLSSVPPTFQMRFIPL

[4] = target: T3, Rat CYP2B1 (Rattus norvegicus, UniProt P00176); assay: Turnover of fluorometric substrates by rat CYP2B1; details: substrate uM: Ia 2, AMMC 20, CEC 40, MFC 50, BFC 50, BQ 40, BzRes 50; 30 min; enzyme 50 nM
T3 sequence (P00176 1-491): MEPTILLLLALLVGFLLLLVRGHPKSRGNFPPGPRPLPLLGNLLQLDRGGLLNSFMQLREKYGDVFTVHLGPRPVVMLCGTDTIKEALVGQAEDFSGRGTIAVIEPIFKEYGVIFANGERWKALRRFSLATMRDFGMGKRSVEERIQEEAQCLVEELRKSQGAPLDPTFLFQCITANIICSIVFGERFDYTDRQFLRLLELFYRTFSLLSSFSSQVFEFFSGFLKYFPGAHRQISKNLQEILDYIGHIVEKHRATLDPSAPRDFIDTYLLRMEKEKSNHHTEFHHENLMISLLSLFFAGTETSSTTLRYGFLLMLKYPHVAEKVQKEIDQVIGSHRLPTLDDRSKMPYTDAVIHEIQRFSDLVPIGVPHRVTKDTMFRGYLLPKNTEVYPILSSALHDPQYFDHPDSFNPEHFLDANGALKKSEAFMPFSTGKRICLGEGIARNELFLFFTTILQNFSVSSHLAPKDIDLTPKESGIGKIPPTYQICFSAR

[5] = target: Rat CYP2A2 (Rattus norvegicus, UniProt P15149); assay: Turnover of fluorometric substrates by rat CYP2A2; details: substrate uM: Ia 2, AMMC 20, CEC 40, MFC 50, BFC 50, BQ 40, BzRes 50; 30 min; enzyme 50 nM
Rat CYP2A2, sequence (P15149 whole entry): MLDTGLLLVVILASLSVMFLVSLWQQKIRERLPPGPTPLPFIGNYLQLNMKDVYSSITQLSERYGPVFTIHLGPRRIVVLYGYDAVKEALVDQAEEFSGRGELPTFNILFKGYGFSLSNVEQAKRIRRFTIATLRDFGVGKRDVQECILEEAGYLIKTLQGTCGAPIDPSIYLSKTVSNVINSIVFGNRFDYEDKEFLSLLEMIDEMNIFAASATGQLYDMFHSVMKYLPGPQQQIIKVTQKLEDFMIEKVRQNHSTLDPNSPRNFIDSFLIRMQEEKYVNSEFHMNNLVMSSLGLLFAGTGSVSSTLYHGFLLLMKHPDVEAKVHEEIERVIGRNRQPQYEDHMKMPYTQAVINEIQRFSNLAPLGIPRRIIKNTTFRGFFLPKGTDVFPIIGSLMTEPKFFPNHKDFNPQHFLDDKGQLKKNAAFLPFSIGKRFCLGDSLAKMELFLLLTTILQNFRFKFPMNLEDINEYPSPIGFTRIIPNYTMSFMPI

[6] = target: T4, Rat CYP2D1 (Rattus norvegicus, UniProt P10633); assay: Turnover of fluorometric substrates by rat CYP2D1; details: substrate uM: Ia 2, AMMC 20, CEC 40, MFC 50, BFC 50, BQ 40, BzRes 50; 30 min; enzyme 50 nM
T4 sequence (P10633 1-504): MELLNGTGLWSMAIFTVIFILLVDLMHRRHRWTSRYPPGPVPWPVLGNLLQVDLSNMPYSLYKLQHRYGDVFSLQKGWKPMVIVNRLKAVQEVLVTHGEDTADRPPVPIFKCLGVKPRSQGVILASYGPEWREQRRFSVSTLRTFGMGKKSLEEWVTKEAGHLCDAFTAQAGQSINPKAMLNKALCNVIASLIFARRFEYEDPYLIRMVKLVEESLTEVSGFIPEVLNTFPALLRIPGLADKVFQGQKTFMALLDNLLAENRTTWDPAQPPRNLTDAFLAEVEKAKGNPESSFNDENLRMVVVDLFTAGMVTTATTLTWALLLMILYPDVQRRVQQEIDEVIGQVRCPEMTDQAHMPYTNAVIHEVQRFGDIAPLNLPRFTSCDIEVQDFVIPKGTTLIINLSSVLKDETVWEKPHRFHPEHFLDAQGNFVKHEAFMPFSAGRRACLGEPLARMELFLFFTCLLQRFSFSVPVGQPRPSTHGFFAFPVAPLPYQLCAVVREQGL

[7] = target: T5, Rat CYP3A2 (Rattus norvegicus, UniProt P05183); assay: Turnover of fluorometric substrates by rat CYP3A2; details: substrate uM: Ia 2, AMMC 20, CEC 40, MFC 50, BFC 50, BQ 40, BzRes 50; 30 min; enzyme 50 nM
T5 sequence (P05183 1-504): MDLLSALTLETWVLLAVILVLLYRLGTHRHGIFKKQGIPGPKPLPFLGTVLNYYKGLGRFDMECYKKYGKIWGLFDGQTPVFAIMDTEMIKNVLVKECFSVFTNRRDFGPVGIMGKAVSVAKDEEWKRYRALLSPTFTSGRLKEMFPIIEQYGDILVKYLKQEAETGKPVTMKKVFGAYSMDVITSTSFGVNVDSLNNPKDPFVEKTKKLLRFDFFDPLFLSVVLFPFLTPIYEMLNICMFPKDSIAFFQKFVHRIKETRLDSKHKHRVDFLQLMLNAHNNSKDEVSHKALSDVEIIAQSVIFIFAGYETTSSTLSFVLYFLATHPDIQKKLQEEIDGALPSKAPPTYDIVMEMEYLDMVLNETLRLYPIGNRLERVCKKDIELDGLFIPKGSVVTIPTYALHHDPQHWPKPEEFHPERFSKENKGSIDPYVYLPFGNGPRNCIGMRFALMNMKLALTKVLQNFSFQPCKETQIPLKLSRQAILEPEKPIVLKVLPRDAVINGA

Rat CYP2E1, sequence (P05182 whole entry): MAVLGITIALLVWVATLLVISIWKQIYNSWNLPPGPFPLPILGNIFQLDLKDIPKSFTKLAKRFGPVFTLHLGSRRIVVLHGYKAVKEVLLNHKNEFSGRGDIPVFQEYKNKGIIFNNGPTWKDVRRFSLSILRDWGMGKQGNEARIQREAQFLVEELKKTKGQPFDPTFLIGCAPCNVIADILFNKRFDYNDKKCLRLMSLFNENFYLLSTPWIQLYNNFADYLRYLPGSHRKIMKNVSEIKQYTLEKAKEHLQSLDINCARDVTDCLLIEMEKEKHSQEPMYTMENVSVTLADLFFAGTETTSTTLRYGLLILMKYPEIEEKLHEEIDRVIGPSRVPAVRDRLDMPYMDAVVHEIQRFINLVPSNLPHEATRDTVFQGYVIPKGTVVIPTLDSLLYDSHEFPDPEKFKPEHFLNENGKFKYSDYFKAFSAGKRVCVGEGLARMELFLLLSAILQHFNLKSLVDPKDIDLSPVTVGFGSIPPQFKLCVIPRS

COc1ccc2c(C(F)(F)F)cc(=O)oc2c1 [MFC, 7-Methoxy-4-trifluoromethylcoumarin]
Turnover Numbers, CYP2E1 [1]: 2.11 pmol product/min/pmol enzyme | Turnover Numbers, CYP1A2 [2]: 1.32 pmol product/min/pmol enzyme | Turnover Numbers, CYP2C13 [3]: 0.21 pmol product/min/pmol enzyme | Turnover Numbers, CYP2B1 [4]: 2.82 pmol product/min/pmol enzyme | Turnover Numbers, CYP2A2 [5]: 0.08 pmol product/min/pmol enzyme | Turnover Numbers, CYP2D1 [6]: 0.09 pmol product/min/pmol enzyme

O=C(OCc1ccccc1)c1ccccc1-c1c2ccc(=O)cc-2oc2cc(OCc3ccccc3)ccc12 [Compound Ia, O-Benzylfluorescein Benzyl Ester]
Turnover Numbers, CYP3A2 [7]: 0.015 pmol product/min/pmol enzyme | Turnover Numbers, CYP1A2 [2]: 0.041 pmol product/min/pmol enzyme | Turnover Numbers, CYP2C13 [3]: 0.003 pmol product/min/pmol enzyme | Turnover Numbers, CYP2A2 [5]: 0.030 pmol product/min/pmol enzyme | Turnover Numbers, CYP2D1 [6]: 0.159 pmol product/min/pmol enzyme

CCOc1ccc2cc(C#N)c(=O)oc2c1 [CEC, 7-Ethoxy-3-cyanocoumarin]
Turnover Numbers, CYP3A2 [7]: 0.15 pmol product/min/pmol enzyme | Turnover Numbers, CYP2E1 [1]: 0.10 pmol product/min/pmol enzyme | Turnover Numbers, CYP1A2 [2]: 1.38 pmol product/min/pmol enzyme | Turnover Numbers, CYP2B1 [4]: 0.45 pmol product/min/pmol enzyme | Turnover Numbers, CYP2A2 [5]: 0.04 pmol product/min/pmol enzyme

O=c1cc(C(F)(F)F)c2ccc(OCc3ccccc3)cc2o1 [BFC, 7-Benzyloxy-4-trifluoromethylcoumarin]
Turnover Numbers, CYP3A2 [7]: 1.04 pmol product/min/pmol enzyme | Turnover Numbers, CYP2C13 [3]: 0.74 pmol product/min/pmol enzyme | Turnover Numbers, CYP2B1 [4]: 3.70 pmol product/min/pmol enzyme | Turnover Numbers, CYP2A2 [5]: 0.26 pmol product/min/pmol enzyme | Turnover Numbers, CYP2D1 [6]: 0.25 pmol product/min/pmol enzyme

c1ccc(COc2ccc3cccnc3c2)cc1 [BQ, 7-Benzyloxyquinoline]
Turnover Numbers, CYP3A2 [7]: 9.8 pmol product/min/pmol enzyme | Turnover Numbers, CYP1A2 [2]: 2.3 pmol product/min/pmol enzyme | Turnover Numbers, CYP2B1 [4]: 2.5 pmol product/min/pmol enzyme | Turnover Numbers, CYP2A2 [5]: 2.8 pmol product/min/pmol enzyme | Turnover Numbers, CYP2D1 [6]: 5.3 pmol product/min/pmol enzyme

O=c1ccc2nc3ccc(OCc4ccccc4)cc3oc-2c1 [BzRes, 7-benzyloxyresorufin]
Turnover Numbers, CYP3A2 [7]: 0.09 pmol product/min/pmol enzyme | Turnover Numbers, CYP1A2 [2]: 0.62 pmol product/min/pmol enzyme | Turnover Numbers, CYP2C13 [3]: 0.01 pmol product/min/pmol enzyme | Turnover Numbers, CYP2B1 [4]: 0.82 pmol product/min/pmol enzyme | Turnover Numbers, CYP2D1 [6]: 0.02 pmol product/min/pmol enzyme
